The source of these data is patent US20150352108A1, “AMINO-PYRIMIDINE COMPOUNDS AS INHIBITORS OF TBK1 AND/OR IKK EPSILON” (Alzheimer's Institute of America, priority 2009, published 2015).

Bounds are passed on as bounds.

The assay has as its target T1, IKKε (Homo sapiens, UniProt Q14164).
T1 construct: His-tag; made in house; host or cells: Sf9 insect cells
T1 sequence (Q14164 1-716): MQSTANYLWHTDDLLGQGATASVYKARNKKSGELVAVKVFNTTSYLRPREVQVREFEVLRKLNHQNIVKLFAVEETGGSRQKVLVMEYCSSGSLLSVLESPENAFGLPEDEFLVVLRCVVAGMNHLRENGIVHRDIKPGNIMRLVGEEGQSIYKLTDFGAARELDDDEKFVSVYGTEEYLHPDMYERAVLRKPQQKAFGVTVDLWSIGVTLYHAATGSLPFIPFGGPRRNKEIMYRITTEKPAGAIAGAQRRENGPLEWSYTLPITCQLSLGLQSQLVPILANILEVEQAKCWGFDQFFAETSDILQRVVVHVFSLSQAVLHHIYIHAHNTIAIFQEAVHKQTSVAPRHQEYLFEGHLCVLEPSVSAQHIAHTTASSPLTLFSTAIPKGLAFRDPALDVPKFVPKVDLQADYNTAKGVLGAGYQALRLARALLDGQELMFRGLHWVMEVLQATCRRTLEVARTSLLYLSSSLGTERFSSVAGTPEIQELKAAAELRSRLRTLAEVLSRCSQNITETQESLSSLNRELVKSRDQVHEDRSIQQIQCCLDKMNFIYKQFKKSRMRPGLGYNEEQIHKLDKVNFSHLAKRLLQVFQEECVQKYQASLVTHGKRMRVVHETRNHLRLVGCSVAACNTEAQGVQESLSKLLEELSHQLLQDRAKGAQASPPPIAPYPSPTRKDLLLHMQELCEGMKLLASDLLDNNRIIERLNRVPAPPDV
As to the kind of experiment: In-vitro IKKε kinase assay ([γ33]ATP filter-plate). Conditions: text bins; read-out: IC50 for inhibition of the kinase activity of IKKε. Type of assay: biochemical. The procedure:
IKKε enzyme was produced as a His-tag fusion in Sf9 cells and used at a final concentration of […]. TBK1 enzyme was produced as a His-tag fusion in Sf9 cells and used at a final concentration of 0.1 μg/ml. Kinase reactions were carried out in reaction buffer using myelin basic protein (Millipore, Ballerica, Mass.) or casein (Sigma, St. Louis, Mo.) as substrate at an ATP concentration equal to twice the Km,ATP value for each enzyme, corresponding to 32 μM ATP for IKKε and 60 μM ATP for TBK1, in the presence of 0.3 μCi [γ^33]ATP (PerkinElmer, Waltham, Mass.). Final enzyme concentrations were 0.1 or 0.015 μg/ml (IKKε) and 0.1 or 0.02 μg/ml (TBK1), representing “normal” and “sensitized” assay conditions respectively. Test compounds (or DMSO solvent as a control) were added prior to initiation of the reactions. Reactions were terminated after 30-45 minutes by adding 3% phosphoric acid. Terminated reactions were transferred to P-81 cellulose phosphate filterplates (Whatman, Inc., Piscataway, N.J.) and washed with 1% phosphoric acid on a vacuum apparatus. After air drying, scintillant (PerkinElmer, Waltham, Mass.) was added and the plates were read on a PerkinElmer TopCount NXT instrument. Counts were normalized to DMSO controls after background subtraction.
By IC50 is commonly meant the concentration at which inhibition is half-maximal. Turning to `N#Cc1cc(-c2ccnc(Nc3ccc(N4CCOCC4)cc3)n2)ccc1NC(=O)C(F)(F)C(F)F` [compound 441, N-[2-Cyano-4-(2-{[4-(morpholin-4-yl)phenyl]amino}pyrimidin-4-yl)phenyl]-2,2,3,3-tetrafluoropropanamide], the IC50 lay within 5 to 50 nM.

Regarding `CC(C)C(=O)Nc1ccc(-c2ccnc(Nc3ccc(CCO)cc3)n2)cc1C#N` [compound 464, N-[2-cyano-4-(2-{[4-(2-hydroxyethyl)phenyl]amino}pyrimidin-4-yl)phenyl]-2-methylpropanamide], the IC50 is 5 to 50 nM.

For `COc1cc(Nc2nccc(-c3ccc(OCC4CC4)c(C#N)c3)n2)ccc1C(=O)N1CC(OC)C1` [compound 621, 2-(Cyclopropylmethoxy)-5-[2-({3-methoxy-4-[(3-methoxyazetidin-1-yl)carbonyl]phenyl}amino)pyrimidin-4-yl]benzonitrile], the IC50 is less than 5 nM.

Turning to `COc1ccc(-c2ccnc(Nc3ccc(S(N)(=O)=O)cc3)n2)cc1C#N` [compound 323, 4-{[4-(3-Cyano-4-methoxyphenyl)pyrimidin-2-yl]amino} benzenesulfonamide], the IC50 is 5 to 50 nM.

For the molecule `N#Cc1cc(-c2ccnc(Nc3ccc(N4CCOCC4)cc3)n2)ccc1OC1CCN(C(=O)C2CC2)C1` (stereo not drawn) [Example 151, 2-{[1-(cyclopropylcarbonyl)pyrrolidin-3-yl]oxy}-5-(2-{[4-(morpholin-4-yl)phenyl]amino}pyrimidin-4-yl)benzonitrile], the IC50 lay in the range of 50 to 500 nM.

`CC(C)C(=O)Nc1ccc(-c2ccnc(Nc3ccc(CCNCCO)cc3)n2)cc1C#N` [compound 455, N-(2-cyano-4-{2-[(4-{2-[(2-hydroxyethyl)amino]ethyl}phenyl)amino]pyrimidin-4-yl}phenyl)-2-methylpropanamide]: the half-inhibitory concentration (IC50) was in the range of 5 to 50 nM.

`N#Cc1cc(-c2ccnc(Nc3ccc(N4CCOCC4)cc3)n2)ccc1NC(=O)N1CCCCC1` [Example 44, N-[2-cyano-4-(2-{[4-(morpholin-4-yl)phenyl]amino}pyrimidin-4-yl)phenyl]piperidine-1-carboxamide]: the IC50 lay in the range of 50 to 500 nM.

As for `CN(C)C(=O)N1CCC(Oc2ccc(-c3ccnc(Nc4ccc(N5CCOCC5)cc4)n3)cc2C#N)CC1` [Example 166, 4-[2-Cyano-4-(2-{[4-(morpholin-4-yl)phenyl]amino}pyrimidin-4-yl)phenoxy]-N,N-dimethylpiperidine-1-carboxamide], the IC50 was in the range of 50 to 500 nM.

As to `N#Cc1cc(-c2ccnc(Nc3ccc(N4CCOCC4)cc3)n2)ccc1NC(=O)Cc1ccccc1` [compound 435, N-[2-cyano-4-(2-{[4-(morpholin-4-yl)phenyl]amino}pyrimidin-4-yl)phenyl]-2-phenylacetamide], the IC50 lay within 50 to 500 nM.

For `N#Cc1cc(-c2ccnc(Nc3ccc(-c4cccnc4)cc3)n2)ccc1OC1CCOCC1` [compound 550, 5-(2-{[4-(Pyridin-3-yl)phenyl]amino}pyrimidin-4-yl)-2-(tetrahydro-2H-pyran-4-yloxy)benzonitrile], the IC50 was less than 5 nM.

Turning to `COc1cc(NC(=O)NC2CCCC2)cc(Nc2nccc(-c3ccc(OC4CCN(C(C)=O)CC4)c(C#N)c3)n2)c1` [compound 333, 1-{3-[(4-{4-[(1-Acetylpiperidin-4-yl)oxy]-3-cyanophenyl}pyrimidin-2-yl)amino]-5-methoxyphenyl}-3-cyclopentylurea], the IC50 lay within 5 to 50 nM.

`COc1cc(Nc2nccc(-c3ccc(OC)c(C#N)c3)n2)ccc1C` [compound 325, 2-Methoxy-5-{2-[(3-methoxy-4-methylphenyl)amino]pyrimidin-4-yl}benzonitrile]: the IC50 was in the range of 50 to 500 nM.

As to `CC(C)N1CCC(Oc2ccc(-c3ccnc(Nc4ccc(N5CCOCC5)cc4)n3)cc2C#N)CC1` [Example 227, 5-(2-{[4-(Morpholin-4-yl)phenyl]amino}pyrimidin-4-yl)-2-{[1-(propan-2-yl)piperidin-4-yl]oxy}benzonitrile], the IC50 was 50 to 500 nM.

For `N#Cc1cc(-c2ccnc(Nc3cccc(NC(=O)N4CC(O)C4)c3)n2)ccc1OC1CCOCC1` [compound 598, N-[3-({4-[3-Cyano-4-(tetrahydro-2H-pyran-4-yloxy)phenyl]pyrimidin-2-yl}amino)phenyl]-3-hydroxyazetidin-1-carboxamide], the half-maximal inhibitory concentration (IC50) was less than 5 nM.

`N#Cc1cc(-c2ccnc(Nc3ccc(N4CCOCC4)cc3)n2)ccc1OCC1CCN(C(=O)C2C[C@H]2F)CC1` (stereo partly drawn) [Example 108, 2-[(1-{[(2R)-2-fluorocyclopropyl]carbonyl}piperidin-4-yl)methoxy]-5-(2-{[4-(morpholin-4-yl)phenyl]amino}pyrimidin-4-yl)benzonitrile]: the half-inhibitory concentration (IC50) lay within 50 to 500 nM.

`CCN(CC)CCc1ccc(Nc2nccc(-c3ccc(NC(=O)C(C)C)c(C#N)c3)n2)cc1` [compound 454, N-{2-cyano-4-[2-({4-[2-(diethylamino)ethyl]phenyl}amino)pyrimidin-4-yl]phenyl}-2-methylpropanamide]: the IC50 lay within 5 to 50 nM.

For `N#Cc1cc(-c2ccnc(Nc3ccc(N4CCOCC4)cc3)n2)ccc1NC(=O)c1cccnc1` [Example 204, N-[2-cyano-4-(2-{[4-(morpholin-4-yl)phenyl]amino}pyrimidin-4-yl)phenyl]pyridine-3-carboxamide], the IC50 lay within 50 to 500 nM.

Consider `CC(C)C(=O)Nc1ccc(-c2ccnc(Nc3cccc(OCCCN4CCOCC4)c3)n2)cc1C#N` [compound 429, N-{2-cyano-4-[2-({3-[3-(morpholin-4-yl)propoxy]phenyl}amino)pyrimidin-4-yl]phenyl}-2-methylpropanamide], for which the 50% inhibitory concentration (IC50) fell in the range of 5 to 50 nM.

In the case of `N#Cc1cc(-c2ccnc(Nc3ccc(S(=O)(=O)Nc4nccs4)cc3)n2)ccc1OC1CCOCC1` [compound 575, 4-({4-[3-Cyano-4-(tetrahydro-2H-pyran-4-yloxy)phenyl]pyrimidin-2-yl}amino)-N-(1,3-thiazol-2-yl) benzenesulfonamide], the IC50 is less than 5 nM.

As to `CC(C)C(=O)Nc1ccc(-c2ccnc(Nc3ccc(CCN4CCNCC4)cc3)n2)cc1C#N` [compound 451, N-{2-cyano-4-[2-({4-[2-(piperazin-1-yl)ethyl]phenyl}amino)pyrimidin-4-yl]phenyl}-2-methylpropanamide], the half-inhibitory concentration (IC50) was 50 to 500 nM.

Turning to `COc1ccc(-c2ccnc(Nc3ccc(NC(=O)NCCCN)cc3)n2)cc1C#N` [Example 10, 1-(3-Aminopropyl)-3-(4-{[4-(3-cyano-4-methoxyphenyl)pyrimidin-2-yl]amino}phenyl) urea], the IC50 is 50 to 500 nM.

`N#Cc1cc(-c2ccnc(Nc3ccc(N4CCOCC4)cc3)n2)ccc1OC1CN(CCO)C1` [compound 474, 2-{[1-(2-hydroxyethyl)azetidin-3-yl]oxy}-5-(2-{[4-(morpholin-4-yl)phenyl]amino}pyrimidin-4-yl)benzonitrile]: the half-maximal inhibitory concentration (IC50) was in the range of 50 to 500 nM.

`N#Cc1cccc(-c2ccnc(Nc3ccc(OCC(=O)N4CCOCC4)cc3)n2)c1` [compound 386, 3-[2-({4-[2-(Morpholin-4-yl)-2-oxoethoxy]phenyl}amino)pyrimidin-4-yl]benzonitrile]: the half-inhibitory concentration (IC50) was in the range of 50 to 500 nM.

Take `N#Cc1cc(-c2ccnc(Nc3ccc(C#Cc4cccnc4)cc3)n2)ccc1OC1CCOCC1` [compound 605, 5-(2-{[4-(Pyridin-3-ylethynyl)phenyl]amino}pyrimidin-4-yl)-2-(tetrahydro-2H-pyran-4-yloxy)benzonitrile]: the IC50 was in the range of 5 to 50 nM.

`CN(C)C1CCN(c2ccc(-c3ccnc(Nc4ccc(N5CCOCC5)cc4)n3)cc2C#N)C1` (stereo not drawn) [Example 69]: the IC50 lay within 50 to 500 nM.

Take `COc1cc(Nc2nccc(-c3ccc(OC4CCN(C(=O)CO)C4)c(C#N)c3)n2)ccc1N1CCC(N2CCN(C)CC2)CC1` (stereo not drawn) [compound 513, 2-{[1-(hydroxyacetyl)pyrrolidin-3-yl]oxy}-5-[2-({3-methoxy-4-[4-(4-methylpiperazin-1-yl)piperidin-1-yl]phenyl}amino)pyrimidin-4-yl]benzonitrile]: the IC50 fell in the range of 50 to 500 nM.

On to `COc1cc(Nc2nccc(-c3ccc(OC4CCNCC4)c(C#N)c3)n2)ccc1S(=O)(=O)NCCCO` [compound 399, 4-({4-[3-cyano-4-(piperidin-4-yloxy)phenyl]pyrimidin-2-yl}amino)-N-(3-hydroxypropyl)-2-methoxybenzene-sulfonamide], for which the IC50 was in the range of 5 to 50 nM.
